pKi: −log10 of the molar value.
biological target: Aurora-B (Homo sapiens, UniProt Q96GD4); assay: Aurora B (Aurora-1) Inhibition Assay, 33P incorporation; assay type: biochemical; settings: enzyme inhibition data (Ki), Table 11; read-out: AurB Ki
Method: An assay buffer solution is prepared which consists of 25 mM HEPES (pH 7.5), 10 mM MgCl2, 0.1% BSA and 10% glycerol. A 22 nM Aurora-B solution, also containing 1.7 mM DTT and 1.5 mM Kemptide (LRRASLG), is prepared in assay buffer. To 22 μL of the Aurora-B solution, in a 96-well plate, is added 2 μl of a compound stock solution in DMSO and the mixture is allowed to equilibrate for 10 minutes at 25° C. The enzyme reaction is initiated by the addition of 16 μl stock [γ-^33P]-ATP solution (˜20 nCi/μL) prepared in assay buffer, to a final assay concentration of 800 μM. The reaction is stopped after 3 hours by the addition of 16 μL 500 mM phosphoric acid and the levels of ^33P incorporation into the peptide substrate is determined by the following method.
A phosphocellulose 96-well plate (Millipore, Cat no. MAPHNOB50) is pre-treated with 100 μL of a 100 mM phosphoric acid prior to the addition of the enzyme reaction mixture (40 μL). The solution is left to soak on to the phosphocellulose membrane for 30 minutes and the plate subsequently is washed four times with 200 μL of a 100 mM phosphoric acid. To each well of the dry plate is added 30 μL of Optiphase ‘SuperMix’ liquid scintillation cocktail (Perkin Elmer) prior to scintillation counting (1450 Microbeta Liquid Scintillation Counter, Wallac). Levels of non-enzyme catalysed background radioactivity are determined by adding 16 μL of the 500 mM phosphoric acid to control wells, containing all assay components (which acts to denature the enzyme), prior to the addition of the [γ-^33P]-ATP solution. Levels of enzyme catalysed ^33P incorporation are calculated by subtracting mean background counts from those measured at each inhibitor concentration. For each Ki determination 8 data points, typically covering the concentration range 0-10 μM compound, are obtained in duplicate (DMSO stocks are prepared from an initial compound stock of 10 mM with subsequent 1:2.5 serial dilutions). Ki values are calculated from initial rate data by non-linear regression using the Prism software package (Prism 3.0, Graphpad Software, San Diego, Calif.).

Aurora-B, sequence (Q96GD4 whole entry): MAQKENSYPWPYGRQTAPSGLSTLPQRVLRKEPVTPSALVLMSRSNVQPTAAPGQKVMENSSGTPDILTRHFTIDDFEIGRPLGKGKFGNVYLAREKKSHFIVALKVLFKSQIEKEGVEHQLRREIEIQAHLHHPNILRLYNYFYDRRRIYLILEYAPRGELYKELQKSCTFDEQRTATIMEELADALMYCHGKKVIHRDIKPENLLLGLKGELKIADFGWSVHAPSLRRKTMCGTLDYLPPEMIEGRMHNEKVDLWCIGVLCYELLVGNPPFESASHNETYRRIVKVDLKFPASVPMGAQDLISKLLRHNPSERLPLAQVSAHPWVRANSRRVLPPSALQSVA

`Cc1ccc(-c2c(N)nn3cc(-c4ccncc4)cnc23)nc1` [Compound V-132] was tested. Which pKi did it give?
The pKi was 5.30 to 6.30.

`Nc1nn2cc(-c3ccncc3)cnc2c1-c1ncccc1OCc1ccccc1` [Compound V-134] was tested. Which pKi did it give?
Its pKi is 5.30 to 6.30.

With `Cc1cccc(-c2c(N)nn3cc(-c4ccncc4)cnc23)n1` [Compound V-178] as the molecule, how does the pKi read?
Its pKi is 5.30 to 6.30.

With `Cc1cccnc1-c1c(N)nn2cc(-c3ccncc3)cnc12` [Compound V-135] as the molecule, how does the pKi read?
The pKi was 5.30 to 6.30.

With `Cc1ccnc(-c2c(N)nn3cc(-c4ccncc4)cnc23)c1` [Compound V-133] as the molecule, how does the pKi read?
Its pKi is 5.30 to 6.30.

How did the pKi turn out when `Nc1nn2cc(-c3ccncc3)cnc2c1-c1cc(N2CCCCC2)ncn1` [Compound V-179] was run?
Its pKi is over 6.30.

biological target: T1, Rlk (Homo sapiens, UniProt P42681); assay: RLK Inhibition Assay, coupled enzyme assay; assay type: biochemical; settings: enzyme inhibition data (Ki), Table 11
T1 sequence (P42681 1-527): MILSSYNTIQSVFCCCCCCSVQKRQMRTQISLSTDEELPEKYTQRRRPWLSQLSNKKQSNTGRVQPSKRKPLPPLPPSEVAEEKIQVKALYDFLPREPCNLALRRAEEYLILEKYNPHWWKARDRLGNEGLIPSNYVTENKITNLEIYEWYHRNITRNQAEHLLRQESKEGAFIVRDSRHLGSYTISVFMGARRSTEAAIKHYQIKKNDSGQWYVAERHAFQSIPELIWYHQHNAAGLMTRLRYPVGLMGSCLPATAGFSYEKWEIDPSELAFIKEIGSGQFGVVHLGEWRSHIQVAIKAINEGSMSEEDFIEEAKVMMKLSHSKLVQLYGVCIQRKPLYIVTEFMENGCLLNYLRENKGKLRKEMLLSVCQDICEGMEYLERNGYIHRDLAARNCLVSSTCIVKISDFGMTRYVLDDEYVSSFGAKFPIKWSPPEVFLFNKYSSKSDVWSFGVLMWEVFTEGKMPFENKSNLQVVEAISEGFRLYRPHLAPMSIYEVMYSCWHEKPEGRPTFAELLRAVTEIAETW
Method: Compounds are screened for their ability to inhibit Rlk using a standard coupled enzyme assay (Fox et al., Protein Sci., (1998) 7, 2249). Assays are carried out in a mixture of 20 mM MOPS (pH 7.0), 10 mM MgCl2, 0.1% BSA and 1 mM DTT. Final substrate concentrations in the assay are 100 μM ATP (Sigma Chemicals) and 10 μM peptide (Poly Glu:Tyr 4:1). Assays are carried out at 30° C. and in the presence of 40 nM Rlk. Final concentrations of the components of the coupled enzyme system are 2.5 mM phosphoenolpyruvate, 300 μM NADH, 30 μg/ml pyruvate kinase and 10 μg/ml lactate dehydrogenase.
An assay stock buffer solution is prepared containing all of the reagents listed above, with the exception of ATP and the test compound of interest. 60 μl of the stock solution is placed in a 96 well plate followed by addition of 2 μl of DMSO stock containing serial dilutions of the test compound (typically starting from a final concentration of 7.5 μM). The plate is preincubated for 10 minutes at 30° C. and the reaction initiated by addition of 5 μl of ATP. Initial reaction rates are determined with a Molecular Devices SpectraMax Plus plate reader over a 10 minute time course. IC50 and Ki data are calculated from non-linear regression analysis using the Prism software package (GraphPad Prism version 3.0cx for Macintosh, GraphPad Software, San Diego Calif., USA).

`CN(C)Cc1ccc(-c2cnc3c(-c4ccccn4)c(N)nn3c2)cc1` [Compound V-214] was tested. Which pKi did it give?
The pKi was 5.30 to 6.30.

With `CNCCCN(C)C(=O)c1ccc(-c2cnc3c(-c4ccccn4)c(N)nn3c2)cc1` [Compound V-191] as the molecule, how does the pKi read?
The pKi was over 6.30.

With `CNCCCN(C)Cc1ccc(-c2cnc3c(-c4ccccn4)c(N)nn3c2)cc1` [Compound V-230] as the molecule, how does the pKi read?
Its pKi is over 6.30.

With `CNCc1ccc(-c2cnc3c(-c4ccccn4)c(N)nn3c2)cc1` [Compound V-236] as the molecule, how does the pKi read?
Its pKi is 5.30 to 6.30.

With `Nc1nn2cc(-c3ccc(CN4CCNCC4)cc3)cnc2c1-c1ccccn1` [Compound V-217] as the molecule, how does the pKi read?
Its pKi is over 6.30.

How did the pKi turn out when `Nc1nn2cc(-c3cccc(N4CCNCC4)c3)cnc2c1-c1ccccn1` [Compound V-222] was run?
The pKi was 5.30 to 6.30.

`Nc1nn2cc(-c3cccc(CN4CCNCC4)c3)cnc2c1-c1ccccn1` [Compound V-223] was tested. Which pKi did it give?
Its pKi is 5.30 to 6.30.

How did the pKi turn out when `NCc1cccc(-c2cnc3c(-c4ccccn4)c(N)nn3c2)c1` [Compound V-202] was run?
The pKi was 5.30 to 6.30.

With `Nc1nn2cc(-c3ccc(CN4CCC(N)CC4)cc3)cnc2c1-c1ccccn1` [Compound V-234] as the molecule, how does the pKi read?
Its pKi is 5.30 to 6.30.

How did the pKi turn out when `CN(C)Cc1cccc(-c2cnc3c(-c4ccccn4)c(N)nn3c2)c1` [Compound V-215] was run?
Its pKi is 5.30 to 6.30.

With `Nc1nn2cc(-c3ccc(CNC4CCNCC4)cc3)cnc2c1-c1ccccn1` [Compound V-232] as the molecule, how does the pKi read?
Its pKi is 5.30 to 6.30.

`CN(C)CCN(C)C(=O)c1ccc(-c2cnc3c(-c4ccccn4)c(N)nn3c2)cc1` [Compound V-188] was tested. Which pKi did it give?
Its pKi is over 6.30.

`Nc1nn2cc(-c3ccc(CN4CC[C@@H](N)C4)cc3)cnc2c1-c1ccccn1` [Compound V-231] was tested. Which pKi did it give?
Its pKi is 5.30 to 6.30.

How did the pKi turn out when `Nc1nn2cc(-c3ccc(CN4CC[C@H](N)C4)cc3)cnc2c1-c1ccccn1` [Compound V-233] was run?
Its pKi is 5.30 to 6.30.

`NCc1ccc(-c2cnc3c(-c4ccccn4)c(N)nn3c2)cc1` [Compound V-195] was tested. Which pKi did it give?
Its pKi is 5.30 to 6.30.

With `NC1NN2C=C(c3cccc(CN4CCCNCC4)c3)C=NC2=C1c1ccccn1` (stereo not drawn) [Compound V-228] as the molecule, how does the pKi read?
Its pKi is 5.30 to 6.30.

How did the pKi turn out when `NC1CCN(Cc2cccc(C3=CN4NC(N)C(c5ccccn5)=C4N=C3)c2)CC1` (stereo not drawn) [Compound V-229] was run?
The pKi was 5.30 to 6.30.

With `NC1NN2C=C(c3cccc(CN4CC[C@H](N)C4)c3)C=NC2=C1c1ccccn1` (stereo partly drawn) [Compound V-227] as the molecule, how does the pKi read?
Its pKi is 5.30 to 6.30.

— patent US7528138B2, “Pyrazolo[1,5-a]pyrimidines useful as inhibitors of protein kinases” (Vertex Pharmaceuticals Incorporated, priority 2004, dated 2009)
